# In patent publication US20130108573A1, “Bile Acid Recycling Inhibitors for Treatment of Hypercholemia and Cholestatic Liver Disease” (Lumena Pharmaceuticals, Inc., priority 2011, published 2013):
# How the values were obtained:
# [1] = tested on: Fecal Bile Acid Excretion and Plasma Bile Acid Concentrations; assay: ZDF rat study of 264W94: fecal bile acid excretion and plasma bile acid concentrations; format: in vivo, Zucker diabetic fatty rats; details: male ZDF rats, 2 weeks
# Protocol: Male Zucker diabetic fatty rats (ZDF/GmiCrl-fa/fa) were purchased from Charles River (Raleigh, N.C.) and housed under controlled conditions (12:12 light-dark cycle, 24° C. and 50% relative humidity) with free access to rodent food (Purina 5008, Harlan Teklad, Indianapolis, Ind.). All rats arrived at seven weeks of age (±3 days). After a one-week acclimation period, rats were anesthetized with isoflurane (Abbott Laboratories, IL) and tail-vein blood samples were collected at 9 am without fasting. Blood glucose levels were measured using a glucometer (Bayer, Leverkusen, Germany). In order to ensure balanced treatment groups, ZDF rats were assigned to six treatment groups based upon baseline glucose: vehicle (0.5% HPMC, 0.1% Tween80) and five doses of 264W94 (0.001, 0.01, 0.1, 1, 10 mg/kg). All treatments were given via oral gavage twice a day and animals were followed for two weeks with blood samples collected from tail vein at the end of each week at 9 am without fasting. Fecal samples were collected for 24 hours during the second week of treatment.
# Non-esterified fatty acids (NEFA), bile acids, and bile acids in fecal extraction were measured using the Olympus AU640 clinical chemistry analyzer (Beckman Coulter, Irving, Tex.).
# Plasma Bile Acid Levels = assay: Plasma bile acid levels of ZDF rats after ascending doses of SC-435 and LUM002; format: in vivo; details: male ZDF rats n=4, end of second week
# Protocol: FIG. 2. Plasma bile acid levels of ZDF rats after administration of ascending doses of SC-435 and LUM002. Male ZDF rats (n=4) were administered vehicle, SC-435 (1, 10 or 30 mg/kg) or LUM002 (0.3, 1, 3, 10 or 30 mg/kg) by oral gavage twice a day for 2 weeks. Plasma bile acid levels were determined at the end of the second week. Data are expressed as mean values ±SEM.
# Male ZDF rats (n=4) were administered vehicle, SC-435 (1, 10 or 30 mg/kg) or LUM002 (0.3, 1, 3, 10 or 30 mg/kg) by oral gavage twice a day for 2 weeks. Plasma bile acid levels were determined at the end of the second week. […] Data are expressed as mean values ±SEM.
# [2] = 264W94 0.001-10 mg/kg oral gavage twice a day
smiles,measurement,setting,value
CCCC[C@]1(CC)CS(=O)(=O)c2cc(OC)c(OC)cc2[C@@H](c2ccccc2)N1 [Compound 264W94],Fecal NEFA,[1]; [2],slightly increased
same,Plasma bile acid concentrations,[1]; [2],decreased dose-dependently
same,Fecal bile acid concentrations elevated compared to vehicle treated rats,"[1]; 264W94 0.001-10 mg/kg oral gavage twice a day, 24 h feces in second week",up to 6.5 fold
same,Bile acids in the feces,[1]; oral administration of 264W94 0.001-10 mg/kg twice a day,dose-dependently increased
same,ED50 of fecal bile acid elevation,[1]; oral gavage twice a day,0.17 mg/kg
"CCCCC1(CCCC)CS(=O)(=O)c2ccc(N(C)C)cc2[C@@H](c2ccc(OCCCC[N+]34CCN(CC3)CC4)cc2)[C@H]1O.CS(=O)(=O)[O-] [SC-435, 1-[4-[4-[(4R,5R)-3,3-dibutyl-7-(dimethylamino)-2,3,4,5-tetrahydro-4-hydroxy-1,1-dioxido-1-benzothiepin-5-yl]phenoxy]butyl]-4-aza-1-azoniabicyclo[2.2.2]octane methanesulfonate salt, reference compound]",Plasma bile acid levels,"Plasma Bile Acid Levels; SC-435 1, 10 or 30 mg/kg oral gavage twice a day for 2 weeks",decreased for all doses
CCCC[C@]1(CC)CS(=O)(=O)c2ccc(N(C)C)cc2[C@@H](c2cccc(NC(=O)N[C@@H]3O[C@H](COS(=O)(=O)[O-])[C@@H](O)[C@H](OCc4ccccc4)[C@H]3O)c2)[C@H]1O.[K+] [LUM002],Plasma bile acid levels,"Plasma Bile Acid Levels; LUM002 0.3, 1, 3, 10 or 30 mg/kg oral gavage twice a day for 2 weeks",decreased for all doses
